Measurements: patent US20140274995A1, “PARENTERAL CEFTOLOZANE ANTIBIOTIC COMPOSITIONS” (Cubist Pharmaceuticals, Inc., priority 2013, published 2014)

Legend:
[1] = Comparison between stabilizing reagents, lyophilized ceftolozane samples stored at 60° C. for 7 days, HPLC purity; format: physicochemical; conditions: without any stabilizing agent
[2] = Residual rate of ceftolozane without stabilizing agent after 3 days at 70° C., HPLC; format: physicochemical; conditions: 100 mg of ceftolozane, no stabilizing agent
Description: The purity of the ceftolozane in a composition comprising 100 mg ceftolozane was also evaluated with no stabilizing agent after 3 days at 70° C. by measuring the residual rate. The residual rate is measured by detecting the amount of ceftolozane in a sample before and after a stability test using HPLC, and determining the percentage of ceftolozane lost during the stability test.

## Cn1c(N)c(NC(=O)NCCN)c[n+]1CC1=C(C(=O)[O-])N2C(=O)[C@@H](NC(=O)/C(=N\OC(C)(C)C(=O)O)c3nsc(N)n3)[C@H]2SC1 [Ceftolozane, (6R,7R)-3-[(5-amino-4-{[(2-aminoethyl)carbamoyl]amino}-1-methyl-1H-pyrazol-2-ium-2-yl)methyl]-7-({(2Z)-2-(5-amino-1,2,4-thiadiazol-3-yl)-2-[(1-carboxy-1-methylethoxy)imino]acetyl}amino)-8-oxo-5-thia-1-azabicyclo[4.2.0]oct-2-ene-2-carboxylate]
[1]
  overall decrease in purity: 5.88%
[2]
  residual rate: 51.2%
